Data as given in patent US20160220626A1, “REVERSAL OF INSULIN RESISTANCE AND DYSLIPIDEMIA IN HIGH-FAT DIET-INDUCED OBESE RAT MODELS BY PHYSALIS MINIMA L. EXTRACT” (priority 2015, published 2016).

Legend:
Format in all cases: in vivo, male Wistar rats
[1] = system: high-fat diet-induced obese rats; experiment: Histopathology of liver (H&E staining, light microscopy); settings: metformin 150 mg/kg; P. minima 150 and 300 mg/kg; versus pathological control (FIG. 8)
Method: (§1) Extract supplementation. […] The HF fed rats were then sub-divided into four groups of three rats each, i.e. Group 1, negative control/pathological control, treated with distilled water; Group 2, positive control, treated with 150 mg/kg of standard drug metformin (Met); Groups 3 and 4, treated groups, received the P. minima extract at doses of 150 and 300 mg/kg, respectively. Normal control rats also received distilled water throughout the treatment for a period of 12 weeks. All the groups, except the control group, were on high-fat diet during the treatment period.
(§2) Blood and tissue collection and sample preparation. For biochemical analysis after 16 weeks of experimental diet, the blood samples were taken from the tail vein after an overnight fast, whereas after 12 weeks of treatment period, rats were subjected to anesthesia and blood was drawn by cardiac puncture. Liver and pancreas samples were prepared and stained with hematoxylin and eosin, as described by Castro and co-workers. The liver was excised and fixed in buffered formalin. The sectioned liver tissue segments were stained with hematoxylin-eosin (H-E) and observed under light microscope.

[2] = system: high-fat diet-induced obese rats; experiment: Liver toxicity assessment after 12 weeks of treatment; settings: serum, 150 mg/kg, mean ± SE
Method: as §1, §2
Biochemical measurements. Blood glucose, serum insulin, total cholesterol, triglycerides, HDL, LDL, very low density lipoproteins ([…]), urea, creatnine, aspartate aminotransferase ([…]), alkaline phosphatase (ALP), serum glutamic pyruvic transaminase (SGPT), and direct and total bilirubin were estimated. Fasting blood glucose levels were measured using glucometer (Accu Chek Performa, Australia). Fasting insulin levels were quantified using ultra sensitive rat insulin ELISA kit (Crystal Chem, Downers Grove, USA). Insulin sensitivity was evaluated using Homeostatic Model Assessment (HOMA). Serum total cholesterol, triglycerides, HDL, LDL, VLDL, urea, creatnine, AST, ALP, SGPT, and direct and total bilirubins were analysed using automatic analyser (Hitachi, Roche Diagnostics 902, Tokyo, Japan).
Evaluation of renal and liver toxicity of P. minima extract: Serum urea, creatnine, aspartate aminotransferase ([…]), alkaline phosphatase (ALP), serum glutamic pyruvic transaminase (SGPT), and total and direct bilirubins were measured to evaluate the toxicity of P. minima towards liver and kidney.

[3] = system: high-fat diet-induced obese rats; experiment: Renal toxicity assessment after 12 weeks of treatment; settings: serum, 150 mg/kg, mean ± SE
Method: as §1
Blood and tissue collection and sample preparation. For biochemical analysis after 16 weeks of experimental diet, the blood samples were taken from the tail vein after an overnight fast, whereas after 12 weeks of treatment period, rats were subjected to anesthesia and blood was drawn by cardiac puncture. […]
Biochemical measurements. […] Fasting blood glucose levels were measured using glucometer (Accu Chek Performa, Australia). Fasting insulin levels were quantified using ultra sensitive rat insulin ELISA kit (Crystal Chem, Downers Grove, USA). Insulin sensitivity was evaluated using Homeostatic Model Assessment (HOMA). Serum total cholesterol, triglycerides, HDL, LDL, VLDL, urea, creatnine, AST, ALP, SGPT, and direct and total bilirubins were analysed using automatic analyser (Hitachi, Roche Diagnostics 902, Tokyo, Japan). […]

[4] = system: insulin resistant high-fat diet-induced obese rats; experiment: Extract supplementation in insulin resistant high-fat diet-induced obese rats: body weight, food intake, lipid profile, insulin resistance
Method: as §1
as §2, with “The sectioned liver tissue segments were stained with hematoxylin-eosin (H-E) and observed under light microscope.” left out
Biochemical measurements. […] Fasting blood glucose levels were measured using glucometer (Accu Chek Performa, Australia). Fasting insulin levels were quantified using ultra sensitive rat insulin ELISA kit (Crystal Chem, Downers Grove, USA). Insulin sensitivity was evaluated using Homeostatic Model Assessment (HOMA).

In the case of `CN(C)C(=N)N=C(N)N` [Metformin], the “hepatic steatosis (liver morphology, H&E)” value [1] is reported as “reversed the condition to the normal”, the ALP [2] is reported as 49.5 ± 1.5 U/L and the “AST (aspartate aminotransferase)” value [2] is reported as 1.5 ± 0.5 U/L. The Direct bilirubin [2] was 0.02 ± 0 mg/dL, the SGPT [2] was 48.5 ± 1.5 U/L and the Total bilirubin [2] was 0.275 ± 0.025 mg/dL. The Creatnine [3] was 0.35 ± 0 mg/dL, the Urea [3] was 31 ± 0 mg/dL and the “reduction in body weights” value ([4]; 150 mg/kg daily, 12 weeks, on high-fat diet, pathological control gained about 109 g, control 75 g) was about 35 g. The average food intake ([4]; supplemented groups, 12 weeks of treatment, high-fat diet rats) was “Decrease”.
